Patent US20040255720A1, “Metal graphite material and production method thereof” (AISIN SEIKI KABUSHIKI KAISHA, priority 2003, published 2004)
Where two headings read alike, the source gives them in different places.

What was measured:
[1] = Solubility of each carboxylic acid in methanol; settings: for solubility in methanol (Max): temperature not given
[2] = Solubilities of each carboxylic acid in water
[3] = 20° C.
[4] = Viscosity of binder chemicals; type: physicochemical; settings: 20° C.
[5] = Thermal decomposition (temperature vs weight, FIG. 3); type: physicochemical
Description: FIG. 3 illustrates a graph indicating a relationship between temperature and weigh of glycerin and diglycerin.
In addition, it is preferable that the aforementioned chemicals having only a function as a binder is thermally decomposed in carbon dioxide and water when the molded body of the graphite particles is calcinated at 250-350° C. temperature, then such carbon dioxide and water evaporates into the air, in other word, no residue remains due to the thermal decomposition reaction. In such point of view, it is considered that glycerin and diglycerin as glycerin derivative being thermally decomposed at below 350° C. and having a predetermined viscosity are preferable chemicals. Viscosity of the glycerin is 1500 mPa.s at 20° C., and the thermal decomposition starts at 150° C. and finishes at 250° C. Viscosity of the diglycerin is 120 mPa.s at 20° C., and the thermal decomposition starts at 250° C. and finishes at 320° C. In response to an appropriate thickness of the coating film, glycerin or diglycerin can be diluted with methanol and mixed into the solution of carboxylic acid copper. FIG. 3 indicates relationships between temperature and weight of glycerin and diglycerin. Structure 1 indicates a molecular structure of glycerin, and structure 2 indicates a molecular structure of diglycerin. [drawing 1]

[6] = Solubility of carboxylic acid copper in organic solvents; type: physicochemical
[7] = Solubility of each carboxylic acid in 1-butanol; type: physicochemical; settings: 20° C.
[8] = Solubility of each carboxylic acid in 1-propanol; type: physicochemical; settings: 20° C.

`Cc1ccccc1C(=O)O` [0-toluic acid] showed a solubility in methanol ([1]; 20° C.) of 20 wt % dissolved at 20 °C.

`CC(=O)CC(=O)O` [acetoacetic acid] gave a solubility in methanol ([1]; 20° C.) of 20 wt % dissolved at 20 °C and a solubility in water ([2]; 20° C.) of 20 wt % dissolved at 20 °C.

`C=CCC(C(=O)O)C(=O)O` [allylic malonic acid] gave a solubility in methanol ([1]; 20° C.) of 20 wt % dissolved at 20 °C and a solubility in water ([2]; 20° C.) of 20 wt % dissolved at 20 °C.

Work on `COc1ccc(C(=O)O)cc1` [anisic acid] yielded a solubility in methanol ([1]; 20° C.) of 20 wt % dissolved at 20 °C.

In the case of `O=C(O)CCCCCCCC(=O)O` [azelaic acid], the solubility in methanol ([1]; 20° C.) is reported as 20 wt % dissolved at 20 °C.

For `[Cl][Cu][Cl]` [copper chloride, cupric chloride], the “Solubility of copper chloride” value ([3]; solvent 1-butanol) was 15.4 g dissolved in saturated solution 100 g at 20 °C, the “Solubility of copper chloride” value ([3]; solvent 1-propanol) was 19.7 g dissolved in saturated solution 100 g at 20 °C and the “Solubility of copper chloride” value ([3]; solvent methanol) was 37 g dissolved in saturated solution 100 g at 20 °C. The “Solubility of copper chloride” value ([3]; solvent water) was 42.3 g dissolved in saturated solution 100 g at 20 °C.

For `OCC(O)COCC(O)CO` (stereo not drawn) [diglycerin], the Viscosity [4] was 120 mPa.s and the “thermal decomposition finishes at (perfectly decomposed into CO2 and H2O)” value [5] was 320 °C.

For `O=C(O)C(O)c1ccccc1` (stereo not drawn) [dl mandelic acid], the solubility in water ([2]; 30° C.) was 37.5 g is dissolved in water 100 g.

In the case of `CCCCCCCCCCCC(=O)O.[Cu]` [dodecanoic acid copper], the “solubility in the methanol compared with butanoic acid copper” value [6] is reported as “lower”.

In the case of `CCCCCCCCCCCC(=O)O` [dodecanoic acid], the “solubility in 1-butanol” value [7] is reported as 83 g is dissolved in solvent 100 g and the solubility in methanol ([1]; 20° C.) is reported as 120 g is dissolved in g is dissolved in methanol 100 g.

In the case of `O=C(O)CCCC(=O)O` [glutaric acid], the solubility in methanol ([1]; 20° C.) is reported as 20 wt % dissolved at 20 °C and the solubility in water ([2]; 30° C.) is reported as 63 g is dissolved in saturated g is dissolved in saturated solution 100 g.

For `OCC(O)CO` [glycerin], the Viscosity [4] was 1500 mPa.s, the Viscosity ([4]; undiluted) was 1500 centipoises and the “thermal decomposition finishes at (perfectly decomposed into CO2 and H2O)” value [5] was 250 °C.

In the case of `O=C(O)c1cccc(C(=O)O)c1` [isophthalic acid], the “solubility in methanol (Max)” value [1] is reported as “Max 1.7 g is dissolved in g is dissolved in methanol 100 g”.

With `CC(=O)CCC(=O)O` [levulinic acid] the solubility in methanol ([1]; 20° C.) was 20 wt % dissolved at 20 °C and the solubility in water ([2]; 20° C.) was 20 wt % dissolved at 20 °C.

In the case of `O=C(O)/C=C\C(=O)O` [maleic acid], the solubility in methanol ([1]; 30° C.) is reported as 70 g is dissolved in g is dissolved in methanol 100 g and the solubility in water ([2]; 30° C.) is reported as 88 g is dissolved in water 100 g at.

For `O=C(O)CC(=O)O` [malonic acid], the solubility in water ([2]; 30° C.) was 63 g is dissolved in saturated g is dissolved in saturated solution 100 g.

`O=C(O)c1ccc(C(=O)O)c(C(=O)O)c1C(=O)O` [mellophanic acid] gave a solubility in water ([2]; 20° C.) of 20 wt % dissolved at 20 °C.

For `C=C(C)C(=O)O` [methacrylic acid], the “solubility in water” value [2] was “Dissolved at arbitrary ratio”.

For `CCCCCCCCCCCCCC(=O)O` [myristic acid], the “solubility in 1-butanol” value [7] was 28.7 g is dissolved in solvent 100 g.

In the case of `O=C(O)c1ccccc1C(=O)O` [phthalic acid], the “solubility in 1-propanol” value [8] is reported as 4.3 g is dissolved in saturated g is dissolved in saturated solution 100 cc and the “solubility in methanol (Max)” value [1] is reported as “Max 16.4 g is dissolved in g is dissolved in methanol 100 g”.

Compound `O=C(O)CCCCCC(=O)O` [pimelic acid] has a solubility in methanol ([1]; 20° C.) of 20 wt % dissolved at 20 °C.

For `O=C(O)c1ccccc1O` [salicylic acid], the “solubility in 1-propanol” value [8] was 22.3 g is dissolved in saturated g is dissolved in saturated solution 100 cc.

`O=C(O)CCCCCCC(=O)O` [suberic acid] gave a solubility in methanol ([1]; 20° C.) of 20 wt % dissolved at 20 °C.

With `O=C(O)c1ccc(C(=O)O)cc1` [terephthalic acid] the “solubility in 1-propanol” value [8] was 4.4 g is dissolved in saturated g is dissolved in saturated solution 100 cc and the “solubility in methanol (Max)” value [1] was “Max 16.9 g is dissolved in g is dissolved in methanol 100 g”.

`O=C(O)c1cc(C(=O)O)cc(C(=O)O)c1` [trimesic acid] gave a solubility in methanol ([1]; 20° C.) of 20 wt % dissolved at 20 °C.
